The record followed here is patent US20090099029A1, “Methods and substrates for conducting assays” (Invitrogen Corporation, priority 2005, published 2009).

What all share (experiment): Further analysis of a plurality of inhibitors and a plurality of kinases (Table 5 inhibition results)
Holding throughout (format): biochemical
What all share (design): scale not given here

Assay [1] deals with kinases of Table 5 (Homo sapiens, UniProt Q00536). The following applies: kinase PCTK1 (Part I, plate A3, Domain 0); inhibitor 100 uM. An excerpt: (§1) The wash solution is then discarded.
Assay [2] addresses kinases of Table 5 (Homo sapiens, UniProt Q13557). The conditions noted are these: kinase CAMK2D; inhibitor 100 uM.
Source text: as §1

Assay [3] deals with T1, kinases of Table 5 (Homo sapiens, UniProt Q9UQB9).
T1 sequence (Q9UQB9 1-309): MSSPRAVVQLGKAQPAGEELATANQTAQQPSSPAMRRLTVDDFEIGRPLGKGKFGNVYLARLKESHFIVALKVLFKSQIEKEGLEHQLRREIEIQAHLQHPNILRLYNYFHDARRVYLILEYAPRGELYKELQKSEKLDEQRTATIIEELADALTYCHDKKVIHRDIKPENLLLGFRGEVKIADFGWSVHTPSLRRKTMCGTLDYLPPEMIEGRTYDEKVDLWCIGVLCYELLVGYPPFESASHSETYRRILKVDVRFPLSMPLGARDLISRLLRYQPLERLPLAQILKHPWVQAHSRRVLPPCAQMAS
The conditions noted are these: kinase STK13 (Part I, plate G11, Domain 1); inhibitor 100 uM.
Source text: as §1

Assay [4] addresses kinases of Table 5 (Homo sapiens, UniProt Q13627). The conditions noted are these: kinase DYRK1A (Part I, plate G6, Domain 1); inhibitor 100 uM.
Source text: as §1

The target in assay [5] is kinases of Table 5 (Homo sapiens, UniProt O75914). The following applies: kinase PAK3 (Part II, plate D4, Domain 1); inhibitor 100 uM.
Sequence of kinases of Table 5 (Homo sapiens, UniProt O75914) (O75914 whole entry): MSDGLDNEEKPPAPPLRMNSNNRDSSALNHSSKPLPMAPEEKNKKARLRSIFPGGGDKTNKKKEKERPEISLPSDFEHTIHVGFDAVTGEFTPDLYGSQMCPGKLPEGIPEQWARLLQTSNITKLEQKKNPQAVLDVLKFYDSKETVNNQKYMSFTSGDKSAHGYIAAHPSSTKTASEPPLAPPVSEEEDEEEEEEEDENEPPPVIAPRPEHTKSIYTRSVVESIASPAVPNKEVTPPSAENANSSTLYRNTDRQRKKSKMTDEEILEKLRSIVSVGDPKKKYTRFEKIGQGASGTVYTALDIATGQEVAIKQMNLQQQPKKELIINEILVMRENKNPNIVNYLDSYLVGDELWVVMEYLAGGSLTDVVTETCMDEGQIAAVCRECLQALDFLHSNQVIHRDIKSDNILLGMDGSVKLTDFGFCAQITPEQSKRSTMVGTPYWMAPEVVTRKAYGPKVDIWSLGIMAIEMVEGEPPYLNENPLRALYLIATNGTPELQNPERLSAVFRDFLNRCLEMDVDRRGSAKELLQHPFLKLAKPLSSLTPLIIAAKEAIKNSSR
Source text: as §1

Assay [6] has as its target kinases of Table 5 (Homo sapiens, UniProt P37173). The conditions noted are these: kinase TGFBR2 (Part I, plate C7, Domain 1); inhibitor 100 uM.
Source text: as §1

In assay [7] the target is T2, kinases of Table 5 (Homo sapiens, UniProt P29323).
T2 sequence (P29323 19-1055): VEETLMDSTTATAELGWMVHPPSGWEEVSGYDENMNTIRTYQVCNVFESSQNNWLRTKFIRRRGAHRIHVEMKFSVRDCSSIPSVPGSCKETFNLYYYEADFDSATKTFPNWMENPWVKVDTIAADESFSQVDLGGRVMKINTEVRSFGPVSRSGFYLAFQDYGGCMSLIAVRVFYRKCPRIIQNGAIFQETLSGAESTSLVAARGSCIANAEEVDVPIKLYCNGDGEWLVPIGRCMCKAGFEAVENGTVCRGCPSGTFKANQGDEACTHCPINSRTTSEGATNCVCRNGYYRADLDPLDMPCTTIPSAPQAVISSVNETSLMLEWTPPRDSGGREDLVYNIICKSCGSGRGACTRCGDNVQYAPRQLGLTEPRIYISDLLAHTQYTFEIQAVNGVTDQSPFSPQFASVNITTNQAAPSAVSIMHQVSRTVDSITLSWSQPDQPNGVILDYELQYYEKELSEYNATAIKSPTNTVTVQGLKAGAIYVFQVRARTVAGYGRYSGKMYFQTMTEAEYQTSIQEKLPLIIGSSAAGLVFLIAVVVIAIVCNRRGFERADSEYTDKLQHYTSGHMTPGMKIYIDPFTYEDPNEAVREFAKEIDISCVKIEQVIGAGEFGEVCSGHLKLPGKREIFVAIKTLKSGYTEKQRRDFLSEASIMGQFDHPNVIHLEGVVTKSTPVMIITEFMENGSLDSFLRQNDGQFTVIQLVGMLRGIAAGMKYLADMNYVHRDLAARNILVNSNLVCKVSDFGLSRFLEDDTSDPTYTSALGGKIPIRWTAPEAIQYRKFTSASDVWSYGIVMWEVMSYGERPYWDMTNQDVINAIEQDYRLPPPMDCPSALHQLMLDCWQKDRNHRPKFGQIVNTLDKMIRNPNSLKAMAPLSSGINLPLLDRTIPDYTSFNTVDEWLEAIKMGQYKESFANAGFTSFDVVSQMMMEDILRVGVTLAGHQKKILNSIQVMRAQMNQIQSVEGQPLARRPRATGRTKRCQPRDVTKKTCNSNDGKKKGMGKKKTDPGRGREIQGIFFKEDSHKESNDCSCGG
The conditions noted are these: kinase EPHB2 (Part I, plate E5, Domain 1); inhibitor 100 uM.
Source text: as §1

Assay [8] deals with kinases of Table 5 (Homo sapiens, UniProt P06239). The conditions noted are these: kinase LCK (Part I, plate A6, Domain 0); inhibitor 100 uM.
Sequence of kinases of Table 5 (Homo sapiens, UniProt P06239) (P06239 whole entry): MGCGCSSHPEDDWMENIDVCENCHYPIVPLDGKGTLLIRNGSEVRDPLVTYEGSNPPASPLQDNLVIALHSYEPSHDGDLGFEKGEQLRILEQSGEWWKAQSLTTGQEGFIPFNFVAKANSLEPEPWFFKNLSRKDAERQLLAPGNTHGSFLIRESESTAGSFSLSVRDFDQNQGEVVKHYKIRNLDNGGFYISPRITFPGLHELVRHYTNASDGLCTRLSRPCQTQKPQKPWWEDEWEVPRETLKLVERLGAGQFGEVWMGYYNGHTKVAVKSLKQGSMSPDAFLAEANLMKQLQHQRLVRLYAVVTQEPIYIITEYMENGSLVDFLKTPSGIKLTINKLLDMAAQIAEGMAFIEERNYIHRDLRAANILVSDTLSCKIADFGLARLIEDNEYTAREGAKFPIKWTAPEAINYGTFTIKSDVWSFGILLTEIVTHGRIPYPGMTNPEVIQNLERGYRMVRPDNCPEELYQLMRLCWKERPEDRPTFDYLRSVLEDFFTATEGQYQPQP
Source text: as §1

The target in assay [9] is kinases of Table 5 (Homo sapiens, UniProt Q9Y6R4). The following applies: kinase MAP3K4 (Part I, plate E7, Domain 1); inhibitor 100 uM.
Sequence of kinases of Table 5 (Homo sapiens, UniProt Q9Y6R4) (Q9Y6R4 whole entry): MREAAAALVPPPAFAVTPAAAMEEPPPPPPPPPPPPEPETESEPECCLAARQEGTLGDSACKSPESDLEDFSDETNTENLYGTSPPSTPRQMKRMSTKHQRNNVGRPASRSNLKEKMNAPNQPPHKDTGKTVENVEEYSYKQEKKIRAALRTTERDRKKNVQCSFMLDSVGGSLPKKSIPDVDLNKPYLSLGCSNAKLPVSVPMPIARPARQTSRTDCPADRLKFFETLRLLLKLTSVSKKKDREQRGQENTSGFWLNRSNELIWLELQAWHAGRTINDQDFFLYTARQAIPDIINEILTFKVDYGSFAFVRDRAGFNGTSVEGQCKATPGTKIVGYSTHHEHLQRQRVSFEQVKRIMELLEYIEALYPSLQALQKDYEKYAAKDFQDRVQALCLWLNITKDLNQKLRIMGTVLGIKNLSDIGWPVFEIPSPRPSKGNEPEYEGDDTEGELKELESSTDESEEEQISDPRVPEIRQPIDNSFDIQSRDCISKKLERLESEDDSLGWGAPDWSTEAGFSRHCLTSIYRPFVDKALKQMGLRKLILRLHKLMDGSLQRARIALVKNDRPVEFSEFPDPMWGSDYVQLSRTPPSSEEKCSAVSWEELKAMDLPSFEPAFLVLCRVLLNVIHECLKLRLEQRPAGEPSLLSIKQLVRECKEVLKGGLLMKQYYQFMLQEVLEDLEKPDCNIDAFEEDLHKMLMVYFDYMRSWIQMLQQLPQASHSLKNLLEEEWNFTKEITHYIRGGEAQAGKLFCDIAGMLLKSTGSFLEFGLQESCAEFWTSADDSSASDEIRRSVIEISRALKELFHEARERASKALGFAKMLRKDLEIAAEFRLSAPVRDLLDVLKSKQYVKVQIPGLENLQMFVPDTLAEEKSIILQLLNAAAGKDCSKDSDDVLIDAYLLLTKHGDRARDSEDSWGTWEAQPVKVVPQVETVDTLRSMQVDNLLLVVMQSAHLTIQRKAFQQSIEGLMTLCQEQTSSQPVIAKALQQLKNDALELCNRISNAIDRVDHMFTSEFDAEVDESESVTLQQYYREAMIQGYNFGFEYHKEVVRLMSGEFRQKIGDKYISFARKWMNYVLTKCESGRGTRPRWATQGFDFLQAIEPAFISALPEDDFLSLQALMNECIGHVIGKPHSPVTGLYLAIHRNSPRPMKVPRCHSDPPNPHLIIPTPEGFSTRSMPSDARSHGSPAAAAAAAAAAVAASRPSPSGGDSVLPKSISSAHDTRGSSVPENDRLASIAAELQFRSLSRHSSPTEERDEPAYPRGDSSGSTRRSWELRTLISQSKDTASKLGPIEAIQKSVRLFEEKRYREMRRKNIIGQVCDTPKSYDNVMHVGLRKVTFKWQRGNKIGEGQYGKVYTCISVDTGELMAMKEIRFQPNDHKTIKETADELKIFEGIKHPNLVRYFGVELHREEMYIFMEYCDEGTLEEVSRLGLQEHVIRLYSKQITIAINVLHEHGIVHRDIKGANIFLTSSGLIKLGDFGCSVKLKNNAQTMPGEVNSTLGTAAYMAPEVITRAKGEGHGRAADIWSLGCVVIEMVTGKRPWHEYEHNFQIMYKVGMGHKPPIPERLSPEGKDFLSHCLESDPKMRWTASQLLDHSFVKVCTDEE
Source text: as §1

The target in assay [10] is T3, kinases of Table 5 (Homo sapiens, UniProt Q8IV63).
T3 sequence (Q8IV63 1-474): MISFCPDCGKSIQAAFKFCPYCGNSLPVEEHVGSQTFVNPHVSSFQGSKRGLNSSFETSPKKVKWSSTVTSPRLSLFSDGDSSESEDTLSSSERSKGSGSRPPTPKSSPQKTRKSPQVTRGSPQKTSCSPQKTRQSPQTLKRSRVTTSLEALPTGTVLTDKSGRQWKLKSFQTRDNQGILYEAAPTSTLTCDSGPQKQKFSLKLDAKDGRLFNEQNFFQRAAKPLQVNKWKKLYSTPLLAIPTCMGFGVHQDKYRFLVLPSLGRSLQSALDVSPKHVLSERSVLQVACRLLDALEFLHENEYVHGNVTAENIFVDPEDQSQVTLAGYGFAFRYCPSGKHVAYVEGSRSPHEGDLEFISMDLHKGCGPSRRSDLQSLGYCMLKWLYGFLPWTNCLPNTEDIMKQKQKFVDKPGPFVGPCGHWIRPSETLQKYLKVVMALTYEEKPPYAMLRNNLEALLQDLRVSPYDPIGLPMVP
The conditions noted are these: kinase LOC51231 (Part I, plate C12, Domain 1); inhibitor 100 uM.
Source text: as §1

The target in assay [11] is kinases of Table 5 (Homo sapiens, UniProt P00519). The following applies: kinase ABL1 (Part II, plate B6, Domain 1); inhibitor 100 uM.
Sequence of kinases of Table 5 (Homo sapiens, UniProt P00519) (P00519 whole entry): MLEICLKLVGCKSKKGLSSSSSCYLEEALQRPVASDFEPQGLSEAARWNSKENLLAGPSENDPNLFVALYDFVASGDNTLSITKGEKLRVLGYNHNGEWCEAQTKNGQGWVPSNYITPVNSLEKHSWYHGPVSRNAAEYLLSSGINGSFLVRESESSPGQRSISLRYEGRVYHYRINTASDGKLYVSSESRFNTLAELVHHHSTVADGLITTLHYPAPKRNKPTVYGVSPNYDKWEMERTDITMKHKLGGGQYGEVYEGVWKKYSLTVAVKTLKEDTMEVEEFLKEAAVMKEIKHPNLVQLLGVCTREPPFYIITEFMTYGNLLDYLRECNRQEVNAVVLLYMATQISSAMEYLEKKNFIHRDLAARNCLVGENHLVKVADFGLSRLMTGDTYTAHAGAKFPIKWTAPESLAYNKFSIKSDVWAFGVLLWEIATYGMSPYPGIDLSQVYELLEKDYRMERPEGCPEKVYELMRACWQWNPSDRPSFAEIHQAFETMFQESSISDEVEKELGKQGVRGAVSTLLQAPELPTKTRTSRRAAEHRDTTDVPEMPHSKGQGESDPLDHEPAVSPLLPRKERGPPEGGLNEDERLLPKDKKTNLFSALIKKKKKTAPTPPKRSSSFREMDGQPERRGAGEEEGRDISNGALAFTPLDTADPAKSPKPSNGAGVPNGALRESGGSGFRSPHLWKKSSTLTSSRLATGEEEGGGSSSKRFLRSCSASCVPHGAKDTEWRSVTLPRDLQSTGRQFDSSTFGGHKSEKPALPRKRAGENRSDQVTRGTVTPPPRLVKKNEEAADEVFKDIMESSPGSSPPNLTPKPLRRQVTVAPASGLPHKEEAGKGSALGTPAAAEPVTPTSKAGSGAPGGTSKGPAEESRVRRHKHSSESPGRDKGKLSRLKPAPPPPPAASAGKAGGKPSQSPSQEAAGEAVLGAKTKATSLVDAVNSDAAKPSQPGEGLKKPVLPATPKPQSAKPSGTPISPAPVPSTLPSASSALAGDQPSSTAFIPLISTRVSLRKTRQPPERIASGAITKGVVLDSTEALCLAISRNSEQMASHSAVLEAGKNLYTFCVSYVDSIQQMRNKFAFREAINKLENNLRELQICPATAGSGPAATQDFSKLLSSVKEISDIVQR
Source text: as §1

Each structure is given as a SMILES string.

Sequence of kinases of Table 5 (Homo sapiens, UniProt Q13557) (Q13557 whole entry): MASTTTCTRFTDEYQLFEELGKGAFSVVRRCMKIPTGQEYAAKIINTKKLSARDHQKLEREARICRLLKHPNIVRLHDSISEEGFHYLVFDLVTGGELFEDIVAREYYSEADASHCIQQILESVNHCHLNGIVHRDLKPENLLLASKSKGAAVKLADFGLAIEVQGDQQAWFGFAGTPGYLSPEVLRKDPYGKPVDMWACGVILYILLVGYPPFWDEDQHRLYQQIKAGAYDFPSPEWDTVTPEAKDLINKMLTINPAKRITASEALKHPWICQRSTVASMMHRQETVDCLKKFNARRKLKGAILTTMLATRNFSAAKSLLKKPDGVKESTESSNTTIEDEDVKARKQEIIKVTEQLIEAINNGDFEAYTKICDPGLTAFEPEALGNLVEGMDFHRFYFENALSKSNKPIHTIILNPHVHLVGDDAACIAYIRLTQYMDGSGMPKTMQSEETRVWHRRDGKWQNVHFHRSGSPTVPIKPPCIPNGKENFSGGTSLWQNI
Sequence of kinases of Table 5 (Homo sapiens, UniProt P37173) (P37173 23-567): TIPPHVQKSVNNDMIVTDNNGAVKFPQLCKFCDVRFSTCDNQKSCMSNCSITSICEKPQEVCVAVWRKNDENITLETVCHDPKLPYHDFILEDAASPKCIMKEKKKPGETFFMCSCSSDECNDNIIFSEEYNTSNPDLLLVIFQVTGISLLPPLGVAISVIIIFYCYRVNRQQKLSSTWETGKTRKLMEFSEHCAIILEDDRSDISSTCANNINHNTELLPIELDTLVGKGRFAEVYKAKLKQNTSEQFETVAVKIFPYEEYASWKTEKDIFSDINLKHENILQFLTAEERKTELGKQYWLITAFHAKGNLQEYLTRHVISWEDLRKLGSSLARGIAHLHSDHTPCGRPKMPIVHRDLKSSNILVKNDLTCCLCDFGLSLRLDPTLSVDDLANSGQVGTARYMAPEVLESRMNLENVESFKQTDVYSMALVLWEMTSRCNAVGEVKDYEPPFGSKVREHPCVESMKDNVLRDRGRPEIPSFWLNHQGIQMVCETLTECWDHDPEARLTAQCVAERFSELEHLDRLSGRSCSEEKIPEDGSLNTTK

Consider `CC(=O)c1c(O)c(C)c(O)c(Cc2c(O)c3c(c(C(=O)/C=C/c4ccccc4)c2O)OC(C)(C)C=C3)c1O` [Rottlerin (Mallotoxin)], for which the “Inhibition Results (Level)” value in assay [1] stood at 0; in [3], 1; in assay [4], 0; in assay [5], 0; in [6] it was 2; in assay [7], 2. The “Inhibition Results (Level)” value worked out at 2 in assay [8], 1 in assay [9], 0 in [10] and 0 in [11]. The same compound registered an Inhibition level in assay [2] of 2.
